Test results taken from patent US20200079758A1, “[4-(PHENYLSULFONYL)PIPERAZIN-1-YL](1H-1,2,3-TRIAZOL-4-YL)METHANONES” (priority 2016, published 2020).

Target: T1, recombinant human AKR1C3 (Homo sapiens, UniProt P42330)
T1 construct: GST (cleaved yes); made in house; host or cells: E. coli
T1 sequence (P42330 1-323): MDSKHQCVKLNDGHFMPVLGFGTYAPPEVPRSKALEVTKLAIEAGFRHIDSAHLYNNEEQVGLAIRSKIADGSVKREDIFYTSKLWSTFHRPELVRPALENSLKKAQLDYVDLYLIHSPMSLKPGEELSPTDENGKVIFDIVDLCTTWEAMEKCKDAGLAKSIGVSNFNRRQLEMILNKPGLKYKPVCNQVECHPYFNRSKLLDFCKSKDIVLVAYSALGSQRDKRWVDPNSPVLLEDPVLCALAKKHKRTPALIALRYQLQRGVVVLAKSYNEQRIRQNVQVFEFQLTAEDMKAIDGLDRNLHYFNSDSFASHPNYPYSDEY
Test: AKR1C3-inhibitory activity assay (generation of Coumberol from Coumberone)
Assay type: biochemical
Conditions: Coumberone 0.3 μM, NADPH 10 μM, 22° C., typically 90 min, average or median values
Method in brief: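 Recombinant human AKR1C3 (E. coli GST fusion, GST removed; ~1 nM) preincubated 15 min with compound, then NADPH 10 μM and Coumberone 0.3 μM (final), 22 °C, typically 90 min, in 50 mM K-phosphate pH 7. Stopped with EM-1404 (1 μM final); Coumberol fluorescence read at 520 nm (ex 380 nm), normalized to no-inhibitor and no-enzyme controls.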

| SMILES | IC50 [nM] |
| --- | --- |
| CC1(C)CN(C(=O)c2cnn[nH]2)CCN1S(=O)(=O)c1ccc2c(c1)OCO2 [Example 132, [4-(1,3-benzodioxol-5-ylsulfonyl)-3,3-dimethylpiperazin-1-yl](1H-1,2,3-triazol-5-yl)methanone] | 22 |
| C[C@@H]1CN(C(=O)c2cnn[nH]2)[C@@H](C)CN1S(=O)(=O)c1cccc(S(C)(=O)=O)c1 [Example 81, [(2S,5R)-2,5-dimethyl-4-{[3-(methylsulfonyl)phenyl]sulfonyl}piperazin-1-yl](1H-1,2,3-triazol-5-yl)methanone] | 32 |
| C[C@@H]1CN(C(=O)c2cnn[nH]2)[C@@H](C)CN1S(=O)(=O)c1ccccc1OC(F)(F)F [Example 72, [(2S,5R)-2,5-dimethyl-4-{[2-(trifluoromethoxy)phenyl]sulfonyl}piperazin-1-yl](1H-1,2,3-triazol-5-yl)methanone] | 2 |
| C[C@@H]1CN(S(=O)(=O)c2ccc(Cl)cc2)C[C@H](C)N1C(=O)c1cnn[nH]1 [Example 95, {(2R,6S)-4-[(4-chlorophenyl)sulfonyl]-2,6-dimethylpiperazin-1-yl}(1H-1,2,3-triazol-5-yl)methanone] | 20 |
| C[C@@H]1CN(C(=O)c2cnn[nH]2)[C@@H](C)CN1S(=O)(=O)c1ccc(O)cc1 [Example 17, {(2S,5R)-4-[(4-hydroxyphenyl)sulfonyl]-2,5-dimethylpiperazin-1-yl}(1H-1,2,3-triazol-5-yl)methanone] | 12 |
| COc1cccc(S(=O)(=O)N2C[C@H](C)N(C(=O)c3cnn[nH]3)C[C@H]2C)c1 [Example 87, {(2S,5R)-4-[(3-methoxyphenyl)sulfonyl]-2,5-dimethylpiperazin-1-yl}(1H-1,2,3-triazol-5-yl)methanone] | 2 |
| CC1(C)CN(C(=O)c2cnn[nH]2)CCN1S(=O)(=O)c1ccc(Cl)cc1 [Example 110, {4-[(4-chlorophenyl)sulfonyl]-3,3-dimethylpiperazin-1-yl}(1H-1,2,3-triazol-5-yl)methanone] | 5 |
| C[C@@H]1CN(C(=O)c2cnn[nH]2)[C@@H](C)CN1S(=O)(=O)Cc1c(F)cccc1F [Example 88, {(2S,5R)-4-[(2,6-difluorobenzyl)sulfonyl]-2,5-dimethylpiperazin-1-yl}(1H-1,2,3-triazol-5-yl)methanone] | 79 |
| CC1(C)CN(C(=O)c2cnn[nH]2)CCN1S(=O)(=O)c1ccccc1F [Example 34, {4-[(2-fluorophenyl)sulfonyl]-3,3-dimethylpiperazin-1-yl}(1H-1,2,3-triazol-5-yl)methanone] | 16 |
| Cc1cccc(S(=O)(=O)N2C[C@@H](C)N(C(=O)c3c[nH]nn3)[C@@H](C)C2)c1 [Example 49, {(2R,6S)-2,6-dimethyl-4-[(3-methylphenyl)sulfonyl]piperazin-1-yl}(1H-1,2,3-triazol-4-yl)methanone] | 6 |
| C[C@@H]1CN(S(=O)(=O)c2ccc(F)cc2)C[C@H](C)N1C(=O)c1c[nH]nn1 [Example 44, {(2R,6S)-4-[(4-fluorophenyl)sulfonyl]-2,6-dimethylpiperazin-1-yl}(1H-1,2,3-triazol-4-yl)methanone] | 48 |
| C[C@@H]1CN(C(=O)c2cnn[nH]2)[C@@H](C)CN1S(=O)(=O)c1cc(C(F)(F)F)cc(C(F)(F)F)c1 [Example 90, [(2S,5R)-4-{[3,5-bis(trifluoromethyl)phenyl]sulfonyl}-2,5-dimethylpiperazin-1-yl](1H-1,2,3-triazol-5-yl)methanone] | 5 |
| C[C@@H]1CN(S(=O)(=O)c2cccc(Cl)c2F)C[C@H](C)N1C(=O)c1c[nH]nn1 [Example 55, {(2R,6S)-4-[(3-chloro-2-fluorophenyl)sulfonyl]-2,6-dimethylpiperazin-1-yl}(1H-1,2,3-triazol-4-yl)methanone] | 10 |
| C[C@@H]1CN(C(=O)c2cnn[nH]2)[C@@H](C)CN1S(=O)(=O)c1ccc(F)c(F)c1 [Example 82, {(2S,5R)-4-[(3,4-difluorophenyl)sulfonyl]-2,5-dimethylpiperazin-1-yl}(1H-1,2,3-triazol-5-yl)methanone] | 2 |
| CC1(C)CN(C(=O)c2cnn[nH]2)CCN1S(=O)(=O)c1ccc(F)cc1 [Example 30, {4-[(4-fluorophenyl)sulfonyl]-3,3-dimethylpiperazin-1-yl}(1H-1,2,3-triazol-5-yl)methanone] | 71 |
| COc1cc(C)ccc1S(=O)(=O)N1CCN(C(=O)c2cnn[nH]2)CC1(C)C [Example 133, {4-[(2-methoxy-4-methylphenyl)sulfonyl]-3,3-dimethylpiperazin-1-yl}(1H-1,2,3-triazol-5-yl)methanone] | 16 |
| C[C@@H]1CN(C(=O)c2cnn[nH]2)[C@@H](C)CN1S(=O)(=O)c1cccc2cccnc12 [Example 68, [(2S,5R)-2,5-dimethyl-4-(quinolin-8-ylsulfonyl)piperazin-1-yl](1H-1,2,3-triazol-5-yl)methanone] | 7 |
| C[C@@H]1CN(C(=O)c2cnn[nH]2)[C@@H](C)CN1S(=O)(=O)c1ccc(Br)cc1 [Example 61, {(2S,5R)-4-[(4-bromophenyl)sulfonyl]-2,5-dimethylpiperazin-1-yl}(1H-1,2,3-triazol-5-yl)methanone] | 4 |
| CC1(C)CN(C(=O)c2cnn[nH]2)CCN1S(=O)(=O)c1ccc(C#N)cc1 [Example 120, 4-{[2,2-dimethyl-4-(1H-1,2,3-triazol-5-ylcarbonyl)piperazin-1-yl]sulfonyl}benzonitrile] | 263 |
| C[C@@H]1CN(S(=O)(=O)c2cc(F)ccc2F)C[C@H](C)N1C(=O)c1c[nH]nn1 [Example 59, {(2R,6S)-4-[(2,5-difluorophenyl)sulfonyl]-2,6-dimethylpiperazin-1-yl}(1H-1,2,3-triazol-4-yl)methanone] | 4 |
| CC1(C)CN(C(=O)c2cnn[nH]2)CCN1S(=O)(=O)c1cccc([N+](=O)[O-])c1 [Example 112, {3,3-dimethyl-4-[(3-nitrophenyl)sulfonyl]piperazin-1-yl}(1H-1,2,3-triazol-5-yl)methanone] | 24 |
| CC1(C)CN(C(=O)c2c[nH]nn2)CCN1S(=O)(=O)c1ccccc1 [Example 19, [3,3-dimethyl-4-(phenylsulfonyl)piperazin-1-yl](1H-1,2,3-triazol-4-yl)methanone] | 17 |
| C[C@@H]1CN(C(=O)c2cnn[nH]2)[C@@H](C)CN1S(=O)(=O)c1ccccc1Br [Example 76, {(2S,5R)-4-[(2-bromophenyl)sulfonyl]-2,5-dimethylpiperazin-1-yl}(1H-1,2,3-triazol-5-yl)methanone] | 1 |
| C[C@@H]1CN(S(=O)(=O)c2cccc(Br)c2)C[C@H](C)N1C(=O)c1c[nH]nn1 [Example 50, {(2R,6S)-4-[(3-bromophenyl)sulfonyl]-2,6-dimethylpiperazin-1-yl}(1H-1,2,3-triazol-4-yl)methanone] | 3 |
| COC(=O)c1cccc(S(=O)(=O)N2CCN(C(=O)c3cnn[nH]3)CC2(C)C)c1 [Example 131, methyl 3-{[2,2-dimethyl-4-(1H-1,2,3-triazol-5-ylcarbonyl)piperazin-1-yl]sulfonyl}benzoate] | 204 |
| CC1(C)CN(C(=O)c2cnn[nH]2)CCN1S(=O)(=O)c1cccc2c1OCC2 [Example 135, [4-(2,3-dihydro-1-benzofuran-7-ylsulfonyl)-3,3-dimethylpiperazin-1-yl](1H-1,2,3-triazol-5-yl)methanone] | 4 |
| C[C@@H]1CN(C(=O)c2c[nH]nn2)C[C@H](C)N1S(=O)(=O)c1ccccc1 [Example 38, [(3R,5S)-3,5-dimethyl-4-(phenylsulfonyl)piperazin-1-yl](1H-1,2,3-triazol-4-yl)methanone] | 14 |
| C[C@@H]1CN(S(=O)(=O)c2cccc(F)c2)C[C@H](C)N1C(=O)c1c[nH]nn1 [Example 52, {(2R,6S)-4-[(3-fluorophenyl)sulfonyl]-2,6-dimethylpiperazin-1-yl}(1H-1,2,3-triazol-4-yl)methanone] | 9 |
| C[C@@H]1CN(C(=O)c2cnn[nH]2)[C@@H](C)CN1S(=O)(=O)c1cccc(Cl)c1 [Example 74, {(2S,5R)-4-[(3-chlorophenyl)sulfonyl]-2,5-dimethylpiperazin-1-yl}(1H-1,2,3-triazol-5-yl)methanone] | 1 |
| Cc1ccccc1S(=O)(=O)N1CCN(C(=O)c2cnn[nH]2)CC1(C)C [Example 31, {3,3-dimethyl-4-[(2-methylphenyl)sulfonyl]piperazin-1-yl}(1H-1,2,3-triazol-5-yl)methanone] | 5 |
